Test results: patent US9867376B2, “Herbicidal compositions comprising N-tetrazol-5-yl)- or N-(triazol-5-yl)arylcarboxamides” (priority 2012, dated 2018)

What was measured:
Format in all cases: in vivo
Setaria viridis = assay: Greenhouse trial, post-emergence, visual herbicidal effect
Protocol: (§1) The weed seeds were sown in pots (diameter 8 cm) with sandy loam soil and germinated under optimum conditions. The herbides were applied by the post-emergence method onto the pots with the cultures, at a spray volume of 300 I/ha. The herbicides were applied on their own and in combination. The trial was conducted in a greenhouse under optimum growth conditions. The herbicidal effects were assessed visually by comparison of untreated and treated plants. The percentages mean: 0%=no effects, 100%=the plants die off completely). The percentages are used to calculate interactions between individual treatments and combination treatment according to S. R. Colby, Weeds 15, pages 20 to 22 (1967).
(§2) The abbreviations denote: • a.i.=active ingredient • E^C=expected value according to Colby (E^C=A+B−A×B100) • Δ=difference (%) of the measured value to the expected value (%) (measured value minus expected value)
(§3) Evaluation: • measured value E is greater than E^C:→synergism (+Δ) • measured value E equals E^C:→additive effect • measured value E is smaller than E^C:→antagonism (−Δ)

Brachiaria platyphylla = assay: as above
Protocol: as §1, §2, §3

Ambrosia artemisiifolia = assay: as above; conditions: alone
Protocol: as §1, §2, §3

Portulaca oleracea = assay: Field trial, post-emergence, visual scoring; conditions: alone
Protocol: (§4) The tests were conducted outdoors (plot trials, 10 m^2 per plot, 2 repetitions, spray application with 200-300 liters of water per hectare). Crops and broad-leaved weeds/weed grasses were sown under customary field conditions. In addition, a natural weed flora also appeared. Application was by the post-emergence method. The application rates of the herbicidally active compounds applied on their own or in combinations are likewise shown in the tables below. Evaluations were by visual scoring (using a 0-100% scale) after application by comparison of treated and untreated test variants.
as §2, §3

Euphorbia heterophylla = assay: Field trial, post-emergence, visual scoring
Protocol: as §4, §2, §3

Centaurea cyanis = assay: Greenhouse trial, post-emergence, visual herbicidal effect; conditions: alone
Protocol: as §1, §2, §3

Avena fatua = assay: as above; conditions: Table 5-49, greenhouse, alone, 4 g of a.i./ha
Protocol: as §1, §2, §3

Bidens pilosa = assay: as above
Protocol: as §1, §2, §3

Pharbitis purpurea = assay: as above; conditions: alone
Protocol: as §1, §2, §3

Xanthium strumarium = assay: as above; conditions: alone
Protocol: as §1, §2, §3

Papaver rhoeas = assay: as above; conditions: alone
Protocol: as §1, §2, §3

Polygonum convolvulus = assay: as above; conditions: alone
Protocol: as §1, §2, §3

Veronica hederifolia = assay: Field trial, post-emergence, visual scoring; conditions: alone, 25 g of a.i./ha
Protocol: as §4, §2, §3

Digitaria sanguinalis = assay: Greenhouse trial, post-emergence, visual herbicidal effect; conditions: alone
Protocol: as §1, §2, §3

Galium aparine = assay: Field trial, post-emergence, visual scoring; conditions: Table 5-92, field, alone, 25 g of a.i./ha
Protocol: as §4, §2, §3

[1] = Table 5-97, greenhouse, alone, 0.5 g of a.i./ha
[2] = Table 5-99, greenhouse, 1 g of a.i./ha
[3] = Table 5-101, greenhouse, 1 g of a.i./ha
[4] = Table 5-103, greenhouse, 2 g of a.i./ha
[5] = Table 5-91, greenhouse, 2 g of a.i./ha
[6] = Table 5-100, greenhouse, 1 g of a.i./ha

Compound: C/C(=N\NC(=O)Nc1cc(F)cc(F)c1)c1ncccc1C(=O)O [diflufenzopyr]
- Activity [%] against Setaria viridis (Setaria viridis; Greenhouse, dosage 12.5 g of a.i./ha): 50%
- Activity [%] against Brachiaria platyphylla (Brachiaria platyphylla; Greenhouse, dosage 25 g of a.i./ha, Table 5-113): 60%
- Activity [%] against Ambrosia artemisiifolia (Ambrosia artemisiifolia; Table 5-93, greenhouse, 25 g of a.i./ha): 50%

Compound: CS(=O)(=O)c1ccc(C(=O)C2C(=O)CCCC2=O)c([N+](=O)[O-])c1 [mesotrione]
- Activity [%] against Portulaca oleracea (Portulaca oleracea; Table 5-15, field, 25 g of a.i./ha): 0%

Compound: CCS(=O)(=O)c1cccnc1S(=O)(=O)NC(=O)Nc1nc(OC)cc(OC)n1 [rimsulfuron]
- Activity [%] against Portulaca oleracea (Portulaca oleracea; Table 5-20, field, 6 g of a.i./ha): 0%

Compound: COc1c(C(=O)Nc2nnnn2C)ccc(C(F)(F)F)c1SC [A1-44]
- Activity [%] against Euphorbia heterophylla (Euphorbia heterophylla; Table 5-51, field, alone, 25 g of a.i./ha): 58%
- Activity [%] against Centaurea cyanis (Centaurea cyanis; Table 5-50, greenhouse, 8 g of a.i./ha): 50%
- Activity [%] against Avena fatua (Avena fatua): 0%

Compound: CCS(=O)(=O)c1ccc(C(=O)Nc2nnnn2C)c(Cl)c1OCCCOC [A1-83]
- Activity [%] against Bidens pilosa (Bidens pilosa; Table 5-96, greenhouse, alone, 1 g of a.i./ha): 35%
- Activity [%] against Brachiaria platyphylla (Brachiaria platyphylla; [1]): 0%

Compound: CCn1nnnc1NC(=O)c1ccc(C)c([S+](C)[O-])c1Cl (stereo not shown) [A1-84]
- Activity [%] against Pharbitis purpurea (Pharbitis purpurea; Table 5-98, greenhouse, 2 g of a.i./ha): 30%
- Activity [%] against Xanthium strumarium (Xanthium strumarium; [2]): 10%

Compound: COc1c(C(=O)Nc2nnnn2C)ccc(C(F)F)c1S(C)(=O)=O [A1-80]
- Activity [%] against Ambrosia artemisiifolia (Ambrosia artemisiifolia; Table 5-93, greenhouse, 1 g of a.i./ha): 25%

Compound: CCS(=O)(=O)c1c(C(F)(F)F)ccc(C(=O)Nc2ncnn2C)c1Cl [A2-10]
- Activity [%] against Bidens pilosa (Bidens pilosa; Greenhouse, dosage 2 g of a.i./ha): 50%
- Activity [%] against Brachiaria platyphylla (Brachiaria platyphylla; Greenhouse, dosage 1 g of a.i./ha, Table 5-110): 35%
- Activity [%] against Brachiaria platyphylla (Brachiaria platyphylla; Greenhouse, dosage 2 g of a.i./ha, Table 5-109): 0%

Compound: COCc1cnc(C2=NC(C)(C(C)C)C(=O)N2)c(C(=O)O)c1 (stereo not shown) [imazamox]
- Activity [%] against Bidens pilosa (Bidens pilosa; Table 5-46, greenhouse, alone, 1 g of a.i./ha): 10%
- Activity [%] against Bidens pilosa (Bidens pilosa; Table 5-47, greenhouse, alone, 2 g of a.i./ha): 20%
- Activity [%] against Bidens pilosa (Bidens pilosa; Table 5-90, greenhouse, alone, 1 g of a.i./ha): 10%
- Activity [%] against Brachiaria platyphylla (Brachiaria platyphylla; Table 5-45, greenhouse, alone, 2 g of a.i./ha): 10%
- Activity [%] against Pharbitis purpurea (Pharbitis purpurea; Table 5-98, greenhouse, 1 g of a.i./ha): 15%
- Activity [%] against Xanthium strumarium (Xanthium strumarium; [2]): 0%
- Activity [%] against Xanthium strumarium (Xanthium strumarium; [3]): 10%
- Activity [%] against Xanthium strumarium (Xanthium strumarium; [4]): 0%
- Activity [%] against Ambrosia artemisiifolia (Ambrosia artemisiifolia; [5]): 10%
- Activity [%] against Ambrosia artemisiifolia (Ambrosia artemisiifolia; [6]): 0%
- Activity [%] against Ambrosia artemisiifolia (Ambrosia artemisiifolia; Table 5-102, greenhouse, 2 g of a.i./ha): 0%

Compound: CCOc1c(S(C)(=O)=O)ccc(C(=O)Nc2nnnn2C)c1Cl [A1-69]
- Activity [%] against Euphorbia heterophylla (Euphorbia heterophylla; Table 5-85, field, alone, 25 g of a.i./ha): 20%
- Activity [%] against Centaurea cyanis (Centaurea cyanis; Table 5-81, greenhouse, 4 g of a.i./ha): 65%
- Activity [%] against Papaver rhoeas (Papaver rhoeas; Table 5-82, greenhouse, 4 g of a.i./ha): 10%
- Activity [%] against Papaver rhoeas (Papaver rhoeas; Table 5-83, greenhouse, 4 g of a.i./ha): 10%
- Activity [%] against Polygonum convolvulus (Polygonum convolvulus; Table 5-84, greenhouse, 4 g of a.i./ha): 0%

Compound: Cn1nnnc1NC(=O)c1ccc(S(C)(=O)=O)c(COCC(F)(F)F)c1Cl [A1-61]
- Activity [%] against Veronica hederifolia (Veronica hederifolia; Table 5-66, field): 68%
- Activity [%] against Setaria viridis (Setaria viridis; Table 5-65, greenhouse, alone, 3 g of a.i./ha): 0%
- Activity [%] against Brachiaria platyphylla (Brachiaria platyphylla; Table 5-64, greenhouse, alone, 6 g of a.i./ha): 0%

Compound: CCC(CC)Nc1c([N+](=O)[O-])cc(C)c(C)c1[N+](=O)[O-] [pendimethalin]
- Activity [%] against Xanthium strumarium (Xanthium strumarium; Table 5-77, greenhouse, 100 g of a.i./ha): 0%
- Activity [%] against Digitaria sanguinalis (Digitaria sanguinalis; Table 5-36, greenhouse, 50 g of a.i./ha): 0%
- Activity [%] against Polygonum convolvulus (Polygonum convolvulus; Table 5-37, greenhouse, 100 g of a.i./ha): 0%
- Activity [%] against Polygonum convolvulus (Polygonum convolvulus; Table 5-78, greenhouse, 100 g of a.i./ha): 0%

Compound: CCSc1c(Br)ccc(C(=O)Nc2nnnn2C)c1C [A1-23]
- Activity [%] against Setaria viridis (Setaria viridis; Table 5-27, greenhouse, alone, 2 g of a.i./ha): 50%
- Activity [%] against Setaria viridis (Setaria viridis; Table 5-31, greenhouse, alone, 2 g of a.i./ha): 50%
- Activity [%] against Bidens pilosa (Bidens pilosa; Table 5-28, greenhouse, alone, 2 g of a.i./ha): 45%
- Activity [%] against Bidens pilosa (Bidens pilosa; Table 5-33, greenhouse, alone, 1 g of a.i./ha): 35%
- Activity [%] against Pharbitis purpurea (Pharbitis purpurea; Table 5-30, greenhouse, 1 g of a.i./ha): 45%
- Activity [%] against Pharbitis purpurea (Pharbitis purpurea; Table 5-34, greenhouse, 2 g of a.i./ha): 45%
- Activity [%] against Digitaria sanguinalis (Digitaria sanguinalis; Table 5-35, greenhouse, 1 g of a.i./ha): 10%
- Activity [%] against Ambrosia artemisiifolia (Ambrosia artemisiifolia; Table 5-29, greenhouse, 1 g of a.i./ha): 10%
- Activity [%] against Ambrosia artemisiifolia (Ambrosia artemisiifolia; Table 5-32, greenhouse, 1 g of a.i./ha): 0%

Compound: COC(=O)c1csc(C)c1S(=O)(=O)NC(=O)n1nc(OC)n(C)c1=O [thiencarbazone-methyl]
- Activity [%] against Bidens pilosa (Bidens pilosa; Table 5-96, greenhouse, alone, 0.5 g of a.i./ha): 40%
- Activity [%] against Brachiaria platyphylla (Brachiaria platyphylla; [1]): 75%
- Activity [%] against Ambrosia artemisiifolia (Ambrosia artemisiifolia; Table 5-52, greenhouse, 0.25 g of a.i./ha): 0%
- Activity [%] against Ambrosia artemisiifolia (Ambrosia artemisiifolia; Table 5-75, greenhouse, 0.25 g of a.i./ha): 0%

Compound: COc1cc(OC)nc(NC(=O)NS(=O)(=O)c2cc(NC=O)ccc2C(=O)N(C)C)n1 [foramsulfuron]
- Activity [%] against Portulaca oleracea (Portulaca oleracea; Table 5-14, field, 16 g of a.i./ha): 0%

Compound: Nc1c([N+](=O)[O-])ccc(Oc2ccccc2)c1Cl [aclonifen]
- Activity [%] against Portulaca oleracea (Portulaca oleracea; Table 5-22, field, 1200 g of a.i./ha): 0%

Compound: Cc1c(C(=O)Nc2ncnn2C)ccc(S(C)(=O)=O)c1S(C)(=O)=O [A2-4]
- Activity [%] against Euphorbia heterophylla (Euphorbia heterophylla; Field, dosage 25 g of a.i./ha): 50%
- Activity [%] against Xanthium strumarium (Xanthium strumarium; [4]): 10%
- Activity [%] against Ambrosia artemisiifolia (Ambrosia artemisiifolia; Table 5-102, greenhouse, 1 g of a.i./ha): 40%

Compound: bicyclopyrone
- Activity [%] against Portulaca oleracea (Portulaca oleracea; Table 5-18, field, 25 g of a.i./ha): 23%

Compound: CCS(=O)(=O)c1ccc(C(=O)Nc2nnnn2C)c(Cl)c1C1=NOC(COC)C1 (stereo not shown) [A1-66]
- Activity [%] against Veronica hederifolia (Veronica hederifolia; Table 5-76, field): 75%
- Activity [%] against Ambrosia artemisiifolia (Ambrosia artemisiifolia; Table 5-75, greenhouse, 6 g of a.i./ha): 35%

Compound: CCc1c(C(=O)Nc2nnnn2C)ccc(C(F)(F)F)c1SC [A1-33]
- Activity [%] against Setaria viridis (Setaria viridis; Table 5-43, greenhouse, alone, 2 g of a.i./ha): 75%
- Activity [%] against Polygonum convolvulus (Polygonum convolvulus; Table 5-44, greenhouse, 4 g of a.i./ha): 0%

Compound: CC(C)c1ccc(NC(=O)N(C)C)cc1 [isoproturon]
- Activity [%] against Setaria viridis (Setaria viridis; Table 5-43, greenhouse, alone, 200 g of a.i./ha): 10%
- Activity [%] against Centaurea cyanis (Centaurea cyanis; Table 5-81, greenhouse, 100 g of a.i./ha): 0%
- Activity [%] against Papaver rhoeas (Papaver rhoeas; Table 5-82, greenhouse, 200 g of a.i./ha): 40%
- Activity [%] against Papaver rhoeas (Papaver rhoeas; Table 5-83, greenhouse, 200 g of a.i./ha): 40%
- Activity [%] against Polygonum convolvulus (Polygonum convolvulus; Table 5-44, greenhouse, 200 g of a.i./ha): 0%
- Activity [%] against Polygonum convolvulus (Polygonum convolvulus; Table 5-84, greenhouse, 200 g of a.i./ha): 0%

Compound: CSc1c(C(F)(F)F)ccc(C(=O)Nc2nnnn2C)c1Cl [A1-85]
- Activity [%] against Xanthium strumarium (Xanthium strumarium; [3]): 25%
- Activity [%] against Ambrosia artemisiifolia (Ambrosia artemisiifolia; [6]): 50%

Compound: CCn1nnnc1NC(=O)c1ccc(C(F)F)c(SC)c1OC [A1-79]
- Activity [%] against Galium aparine (Galium aparine): 70%
- Activity [%] against Bidens pilosa (Bidens pilosa; Table 5-90, greenhouse, alone, 2 g of a.i./ha): 20%
- Activity [%] against Ambrosia artemisiifolia (Ambrosia artemisiifolia; [5]): 30%

Compound: Cc1c(C(=O)Nc2nnnn2C)ccc(S(C)(=O)=O)c1C1=NOCC1 [A1-24]
- Activity [%] against Digitaria sanguinalis (Digitaria sanguinalis; Table 5-36, greenhouse, 6 g of a.i./ha): 50%
- Activity [%] against Polygonum convolvulus (Polygonum convolvulus; Table 5-37, greenhouse, 6 g of a.i./ha): 0%

Compound: COc1cc(OC)nc(NC(=O)NS(=O)(=O)c2ncccc2C(=O)N(C)C)n1 [nicosulfuron]
- Activity [%] against Portulaca oleracea (Portulaca oleracea; Table 5-19, field, 20 g of a.i./ha): 30%
